Laboratory results from patent US20210330611A1, “THERAPY FOR NEUROLOGICAL DISEASES/DISORDERS” (priority 2020, published 2021).
Where a name gives a salt, the structure may show the parent alone. Read-outs that look alike come from different tables or passages of the source.

Key:
[1] = system: fibrin-induced microglia activation; test: Image-based assay of fibrin-induced microglia activation (HTS and dose response); format: cell-based, rat; settings: primary microglia HTS, fibrin stimulation; for inhibition at 10 µM: Rattus norvegicus, Microglia, read-out: Fibrin % inhibition
[2] = system: fibrin- and LPS-induced microglia activation; test: cells; format: cell-based, rat
primary rat microglia [3] = test: Cell toxicity (dead cells, size <150 μm2) in coated fibrin (cFib) assay; settings: primary microglia HTS;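 also: share of dead cells sized under 150 µm2 at 10 µM in fibrin-stimulated microglia HTS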
primary rat microglia [4] = system: primary rat microglia
[5] = system: LPS-induced microglia activation; test: Image-based assay of LPS-induced microglia activation (HTS and dose response); format: cell-based, rat; settings: for inhibition at 10 µM: Rattus norvegicus, Microglia, read-out: LPS % inhibition
[6] = quadrant by fibrin and LPS inhibition, HTS at 10 μM
[7] = fibrin assay, dead cells (size <150 μm2)
[8] = primary microglia HTS, LPS stimulation, compounds at 10 μM
[9] = classification by fibrin and LPS inhibition, HTS at 10 μM
[10] = fibrin assay, dead cells (size <150 μm2), compounds at 10 μM
[11] = cell size >800 μm2 as marker of activation
[12] = classification by fibrin and LPS inhibition in HTS
[13] = fibrin stimulation, cell size <150 μm2 as marker of toxicity

Compound	inhibition at 10 µM ([1]; compounds at 10 μM) [%]	Quadrant (FIG. 5b) [2, 6]	Fibrin % cell toxicity (primary rat microglia [3]; [7]) [%]	LPS % cell toxicity (primary rat microglia [4]; rat) [%]	inhibition at 10 µM [5, 8] [%]	Quadrant (FIG. 5b) [2, 9]	Fibrin % cell toxicity (primary rat microglia [3]; [10]) [%]	also measured
Nc1ncnc2nc[nH]c12 [Adenine]	-7	Q4	1	1	22			
C[C@@H](O)CN(CCN(C[C@@H](C)O)C[C@@H](C)O)C[C@@H](C)O [Editol]						Q4	1	Fibrin % inhibition ([1]; compounds at 10 μM): 24%; LPS % cell toxicity (primary rat microglia [4]): 0%; LPS % inhibition [5, 8]: 3%
CN(C)CCOC(=O)C(c1ccccc1)C1(O)CCCC1 (centres unmarked) [Cyclopentolate]	-8			0	9	Q4	1	
OC(CCCN1CCCCC1)(c1ccccc1)c1ccccc1 [Diphenidol]	-34			0	-5	Q4	1	
CCOC(=O)CCC(=O)O[C@H]1[C@H](O[C@@H]2[C@@H](C)[C@H](O[C@H]3C[C@@](C)(OC)[C@@H](O)[C@H](C)O3)[C@@H](C)C(=O)O[C@H](CC)[C@@](C)(O)[C@H](O)[C@@H](C)C(=O)[C@H](C)C[C@@]2(C)O)O[C@H](C)C[C@@H]1N(C)C [Erythromycin Ethylsuccinate]	-14			0	14	Q4	0	
C[C@@H]1CC[C@H]2[C@@H](C)C(=O)O[C@@H]3O[C@@]4(C)CC[C@@H]1[C@]32OO4 [Artemisinin]	-25	Q4	0	0	12			
Arsenic Trioxide		Q4	1					Fibrin % inhibition ([1]; compounds at 10 μM): 14%; LPS % cell toxicity (primary rat microglia [4]): 0%; LPS % inhibition [5, 8]: 14%
OC1(c2ccc(Cl)c(C(F)(F)F)c2)CCN(CCCC(c2ccc(F)cc2)c2ccc(F)cc2)CC1 [Penfluridol]				0				inhibition at 10 µM [1, 11]: 3%; Quadrant (FIG. 5b) [2, 12]: Q4; Fibrin % cell toxicity (primary rat microglia [3]; [13]): 1%; inhibition at 10 µM ([5]; 48 h, primary microglia HTS, LPS stimulation, cell size >800 μm2 as marker of activation): 8%
Nc1nccs1 [Aminothiazole]	-31	Q4	1	1	17			
CN1CCN(C(c2ccccc2)c2ccccc2)CC1 [Cyclizine]	-23			1	34	Q4	0	
COc1ccc(-c2cc(=O)c3c(O)cc(O[C@@H]4O[C@H](CO[C@@H]5O[C@@H](C)[C@H](O)[C@@H](O)[C@H]5O)[C@@H](O)[C@H](O)[C@H]4O)cc3o2)cc1O [Diosmin]	-12			0	10	Q4	1	
C[Se]CC[C@H](N)C(=O)O [Selenomethionine]				0				inhibition at 10 µM [1, 11]: -5%; Quadrant (FIG. 5b) [2, 12]: Q4; Fibrin % cell toxicity (primary rat microglia [3]; [13]): 1%; inhibition at 10 µM ([5]; 48 h): 10%
CC(O)Cn1cnc2c1c(=O)n(C)c(=O)n2C (centres unmarked) [Proxyphylline]				0				inhibition at 10 µM [1, 11]: -21%; Quadrant (FIG. 5b) [2, 12]: Q4; Fibrin % cell toxicity (primary rat microglia [3]; [13]): 1%; inhibition at 10 µM ([5]; 48 h): 11%
COC(=O)CCc1ccc(OCC(O)CNC(C)C)cc1 (centres unmarked) [Esmolol, Esmolol Hydrochloride]						Q4	1	Fibrin % inhibition ([1]; compounds at 10 μM): −15%; LPS % cell toxicity (primary rat microglia [4]): 0%; LPS % inhibition [5, 8]: 2%
CC(C)c1c(CN(C)C(C)Cc2ccccc2)n(C)n(-c2ccccc2)c1=O (centres unmarked) [Famprofazone]	-3			0	15	Q4	1	
Nc1ccc(C(=O)O)cc1 [4-Aminobenzoic Acid]	-31	Q4	1	1	13			
CCCCNc1ccc(C(=O)OCCOCCOCCOCCOCCOCCOCCOCCOCCOC)cc1 [Benzonatate]	0	Q4	1	0	12			
COc1ccc(C(=O)c2ccccc2O)c(O)c1 [Dioxybenzone]	-4			0	16	Q4	1	
OCC(O)CN1CCN(c2ccccc2)CC1 (centres unmarked) [Dropropizine]	-26			0	11	Q4	1	
COc1ccc2nc3cc(Cl)ccc3c(Nc3cc(CN4CCCC4)c(O)c(CN4CCCC4)c3)c2n1.O=P(O)(O)O.O=P(O)(O)O.O=P(O)(O)O.O=P(O)(O)O [Pyronaridine Tetraphosphate]								Fibrin % inhibition [1, 11]: 16%; Quadrant (FIG. 5b) [2, 12]: Q4; Fibrin % cell toxicity (primary rat microglia [3]; [13]): 1%; LPS % cell toxicity (primary rat microglia [4]): 0%; LPS % inhibition [5]: 9%
O=C(O)CN(CCN(CC(=O)O)CC(=O)O)CCN(CC(=O)O)CC(=O)O								Fibrin % inhibition [1, 11]: 11%; Quadrant (FIG. 5b) [2, 12]: Q4; Fibrin % cell toxicity (primary rat microglia [3]; [13]): 0%; LPS % cell toxicity (primary rat microglia [4]): 0%; LPS % inhibition [5]: −2%
CCN(CCCc1ccccc1)CCCc1ccccc1 [Alverine]	-17	Q4	0	0	6			
Apramycin Sulfate		Q4	1					Fibrin % inhibition ([1]; compounds at 10 μM): 11%; LPS % cell toxicity (primary rat microglia [4]): 1%; LPS % inhibition [5, 8]: 25%
C[C@H](CCC(=O)[O-])[C@H]1CC[C@H]2[C@@H]3C(=O)C[C@@H]4CC(=O)CC[C@]4(C)[C@H]3CC(=O)[C@]12C.[Na+]								Fibrin % inhibition [1, 11]: 21%; Quadrant (FIG. 5b) [2, 12]: Q4; Fibrin % cell toxicity (primary rat microglia [3]; [13]): 1%; LPS % cell toxicity (primary rat microglia [4]): 1%; LPS % inhibition [5]: 28%
Cc1c(N(C)C)c(=O)n(-c2ccccc2)n1C [Aminophenazone]	-41	Q4	1	1	20			
CCOC(=O)[C@H](CCc1ccccc1)N[C@H]1CCc2ccccc2N(CC(=O)O)C1=O [Benazepril]	0	Q4	1	1	26			
CCc1nc(N)nc(N)c1-c1ccc(Cl)cc1 [Pyrimethamine]				1				inhibition at 10 µM [1, 11]: -11%; Quadrant (FIG. 5b) [2, 12]: Q4; Fibrin % cell toxicity (primary rat microglia [3]; [13]): 1%; inhibition at 10 µM ([5]; 48 h): 12%
CCCCOC(=O)c1ccccc1C(=O)OCCCC [Dibutyl Phthalate]	-30			0	9	Q4	1	
